Data: patent publication US7348421B1, “Methods for production of p-hydroxybenzoate in bacteria” (North Carolina State University, priority 2000, dated 2008)
Several values for one entry are separate records, joined by “and”; a condition that tells them apart may be missing. Equal entries are not always repeated. Where two headings read alike, the source gives them in different places.

Experiments:
toluene-tolerant strain = experiment: Enrichment selection in flasks, toluene; assay type: cell-based; conditions: slow rate of growth
Description: Using a similar procedure with toluene, a toluene-tolerant strain (with a slow rate of growth on 150 ppm of toluene) was obtained. Adding 10 mM MgSO4 increased the tolerance of the organism to toluene.

DOT-T1E = assay type: cell-based, Pseudomonas putida; conditions: wild-type, 0.3% (vol/vol) toluene
[1] = tested on: Pseudomonas putida DOT-T1E; experiment: Halo-inhibition test with antibiotic disks on minimal medium; assay type: cell-based; conditions: wild-type; Halo-inhibition test
[2] = tested on: P. mendocina KR1-A (#362); assay type: cell-based, Pseudomonas mendocina; conditions: gradient 0-100 mg/L, repeated lines
[3] = tested on: P. mendocina krc16DkpobA51a (#303); assay type: cell-based, Pseudomonas mendocina; conditions: gradient 0-100 mg/L, repeated lines
[4] = tested on: P. mendocina KR1 with pPAT7; conditions: gradient 0-20 g/L
[5] = tested on: Pseudomonas putida DOT-T1E; experiment: pHBA shock after preculture on pHBA, 1 or 10 mM MgSO4; assay type: cell-based
[6] = tested on: P. putida KT2440 with pPAT8; conditions: gradient 0-20 g/L
[7] = tested on: P. putida PhoA5 with pPAT8; conditions: gradient 0-20 g/L
Pseudomonas fluorescens = assay type: cell-based; conditions: gradient of PHBA between 0 and 30 g/L
P. mendocina KR1 = conditions: P. mendocina KR1, plasmid none, gradient 0-20 g/L
[8] = tested on: Acinetobacter calcoaceticus; assay type: cell-based; conditions: gradient of PHBA between 0 and 30 g/L
P. mendocina KR1 (#363) = experiment: Growth on pHBA gradient plates; conditions: gradient 0 to 40 g/L, 24 h, 30° C.
[9] = tested on: Pseudomonas putida DOT-T1E; experiment: Growth in M9 liquid medium with glucose and p-hydroxybenzoate; assay type: cell-based; conditions: M9 with glucose
Pseudomonas putida EEZ10 = assay type: cell-based; conditions: gradient of PHBA between 0 and 30 g/L
strain C = experiment: Selection on TSA plates with toluene and pHBA; assay type: cell-based; conditions: 100 ppm toluene
Description: Three more transfers were made in a TSA medium plus 10 g/L glucose, 100 mg/L cycloheximide, 5 g/L agar (Difco), and increasing concentrations of pHBA. The pH was adjusted to 7.2. Toluene to 100 ppm was added to the bottom of the glass desicator as a mixture of hexadecane:toluene (262 mL:26.5 mL). This mixture was expected to give 100 ppm toluene in the liquid phase in equilibrium. Selected strains C and F (DGL#325) grew on 40 g/L pHBA after few day of incubation, strain C grew at 50 g/l pHBA after 10 days of incubation. Under microscope strain C grew in long chains.

Pseudomonas putida R1 = assay type: cell-based; conditions: gradient of PHBA between 0 and 30 g/L
[10] = tested on: P. mendocina krc16DkpobA51a (#303); conditions: gradient 0 to 40 g/L, 24 h, 30° C.
[11] = tested on: P. mendocina KR1 with pPAT8; conditions: gradient 0-20 g/L
Pseudomonas stutzeri = assay type: cell-based; conditions: gradient of PHBA between 0 and 30 g/L
Ralstonia solanacearum = assay type: cell-based; conditions: gradient of PHBA between 0 and 30 g/L
strain F (DGL#325) = experiment: Selection on TSA plates with toluene and pHBA; assay type: cell-based, Pseudomonas mendocina; conditions: 100 ppm toluene, after few day of incubation
Description: Three more transfers were made in a TSA medium plus 10 g/L glucose, 100 mg/L cycloheximide, 5 g/L agar (Difco), and increasing concentrations of pHBA. The pH was adjusted to 7.2. Toluene to 100 ppm was added to the bottom of the glass desicator as a mixture of hexadecane:toluene (262 mL:26.5 mL). This mixture was expected to give 100 ppm toluene in the liquid phase in equilibrium. […]. Under microscope strain C grew in long chains.

Enriched cultures = experiment: Selection on TSA plates with toluene and pHBA; assay type: cell-based; conditions: dodecane:toluene overlay (100 ppm toluene)
Description: Five transfers were made on glass plates with trypticase soy agar (TSA-Difco) medium with 10 g/L glucose. Toluene (˜0.5 mL) was added to the bottom of the inverted plates, saturating the medium and the gas phase. […]. This mixture was calculated to give 100 ppm toluene concentration in the liquid phase. […]

PhoA5 mutant = experiment: Survival after sudden pHBA shock with or without Fe-citrate; assay type: cell-based, Pseudomonas putida
Pseudomonas vesicularis = assay type: cell-based; conditions: gradient of PHBA between 0 and 30 g/L
Escherichia coli ET8000 = assay type: cell-based; conditions: gradient of PHBA between 0 and 30 g/L
E. coli K12 (#327) = conditions: gradient 0 to 40 g/L, 24 h, 30° C.
Bacillus subtilis = assay type: cell-based; conditions: gradient of PHBA between 0 and 30 g/L
Alcaligenes eutrophus = assay type: cell-based; conditions: gradient of PHBA between 0 and 30 g/L
[12] = tested on: P. putida KT2440 with pPAT7; conditions: gradient 0-20 g/L
P. putida KT2440 = conditions: P. putida KT2440, plasmid none; gradient 0-20 g/L
Pseudomonas aeruginosa = assay type: cell-based; conditions: gradient of PHBA between 0 and 30 g/L

Cc1ccccc1 [toluene]
toluene concentration at which the strain grew (toluene-tolerant strain): 150 ppm | survival of toluene shock (DOT-T1E; cells pre-exposed to toluene in the gas phase): tolerated the shock | loss of viability after sudden exposure to toluene (DOT-T1E; non-pre-exposed cells): 5 orders of magnitude

O=C(N[C@H](CO)[C@H](O)c1ccc([N+](=O)[O-])cc1)C(Cl)Cl [CAM, chloramphenicol]
tolerance/sensitivity to antibiotic [1]: tolerant | Growth (distance in mm) on CAM gradient [2]: 15 mm and 10 mm | Growth (distance in mm) on CAM gradient [3]: 10 mm and 15 mm

O=C(O)c1ccc(O)cc1 [pHBA, p-hydroxybenzoic acid]
pHBA Tolerance [4]: ~10 g/L | cell viability after pHBA shock ([5]; cells not pregrown on pHBA, 30 and 36 g/L, 24 h after the shock): no cells were recovered | cell viability after pHBA shock ([5]; cells not pregrown on pHBA, >18 g/L, 1 or 10 mM MgSO4): marked decrease in cell viability | cell viability after pHBA shock ([5]; preinduced cells, 30 and 36 g/L pHBA, 1 mM MgSO4, 24 h after the shock): cells were not recoverable | decrease in number of viable cells after pHBA shock ([5]; preinduced cells, 30 g/L, 10 mM MgSO4, growth resumed afterwards): ~6 orders of magnitude | cell viability after pHBA shock ([5]; preinduced cells, up to 0.18 g/L PHBA, regardless of MgSO4): no significant effect on cell viability | pHBA Tolerance [6]: 18.5 g/L | pHBA Tolerance [7]: 17 g/L | pHBA tolerance or sensitivity (Pseudomonas fluorescens): sensitive | pHBA Tolerance (P. mendocina KR1): 8.5 g/L | pHBA Tolerance (P. mendocina KR1; listed as PHBA): about 8.5 g/L | pHBA tolerance or sensitivity [8]: tolerant | growth on pHBA gradient plates (P. mendocina KR1 (#363)): 10 mm and 20 mm | growth (CFU per mL) ([9]; 6 g/L of p-hydroxybenzoate): growth was exponential | growth (CFU per mL) ([9]; 12 or higher g/L p-hydroxybenzoate): number of viable cells decreased | pHBA tolerance or sensitivity (Pseudomonas putida EEZ10): tolerant | pHBA concentration at which strain grew (strain C; after 10 days of incubation): 50 g/l | pHBA concentration at which strain grew (strain C; after few day of incubation): 40 g/L | pHBA tolerance or sensitivity (Pseudomonas putida R1): tolerant | growth on pHBA gradient plates [10]: 10 mm and 15 mm | pHBA Tolerance [11]: 10.2 g/L | pHBA Tolerance ([11]; listed as PHBA): ~10 g/L | pHBA tolerance or sensitivity (Pseudomonas stutzeri): sensitive | pHBA tolerance or sensitivity (Ralstonia solanacearum): sensitive | pHBA concentration at which strain grew (strain F (DGL#325)): 40 g/L | pHBA concentration at which cultures grew (Enriched cultures): 20 g/L | survival after pHBA shock (PhoA5 mutant; 12 g/L PHBA, absence of iron): about 0.0001% | survival after pHBA shock (PhoA5 mutant; 12 g/L PHBA, with extra iron (Fe-citrate)): ~100% | survival after pHBA shock (PhoA5 mutant; 18 g/L, absence of iron): no cells survived | survival after pHBA shock (PhoA5 mutant; 18 g/L, supplemented with iron): 0.001% | pHBA tolerance or sensitivity (Pseudomonas vesicularis): sensitive | pHBA tolerance or sensitivity (Escherichia coli ET8000): tolerant | growth on pHBA gradient plates (E. coli K12 (#327)): 35 mm and 20 mm | pHBA tolerance or sensitivity (Bacillus subtilis): sensitive | pHBA tolerance or sensitivity (Alcaligenes eutrophus): sensitive | pHBA Tolerance [12]: 17 g/L | pHBA Tolerance (P. putida KT2440): 17 g/L | pHBA tolerance or sensitivity (Pseudomonas aeruginosa): sensitive
